Results reported in article PMC9031226, “Preclinical Therapeutic Assessment of a New Chemotherapeutics [Dichloro(4,4’-Bis(2,2,3,3-Tetrafluoropropoxy) Methyl)-2,2’-Bipryridine) Platinum] in an Orthotopic Patient-Derived Xenograft Model of Triple-Negative Breast Cancers” (Pharmaceutics, 2022).

Biological target: bovine serum albumin (BSA) (Bos taurus, UniProt P02769)
Assay: UV-Vis spectrum of BSA-drug complex
Format: binding
Conditions: 250 μM BSA in PBS pH 7.4, 20-640 μM
Source text: Absorption between the wavelengths of 220 nm and 500 nm was detected by measuring absorbance every 2 nm via Thermo Varioskan Flash microplate reader (Thermo Fisher Scientific Inc., Waltham, MA, USA). The maximal absorbance of BSA at 278 nm was marked to highlight the spectrum in pure BSA without chemical intercalation.

bovine serum albumin (BSA), sequence (P02769 25-607): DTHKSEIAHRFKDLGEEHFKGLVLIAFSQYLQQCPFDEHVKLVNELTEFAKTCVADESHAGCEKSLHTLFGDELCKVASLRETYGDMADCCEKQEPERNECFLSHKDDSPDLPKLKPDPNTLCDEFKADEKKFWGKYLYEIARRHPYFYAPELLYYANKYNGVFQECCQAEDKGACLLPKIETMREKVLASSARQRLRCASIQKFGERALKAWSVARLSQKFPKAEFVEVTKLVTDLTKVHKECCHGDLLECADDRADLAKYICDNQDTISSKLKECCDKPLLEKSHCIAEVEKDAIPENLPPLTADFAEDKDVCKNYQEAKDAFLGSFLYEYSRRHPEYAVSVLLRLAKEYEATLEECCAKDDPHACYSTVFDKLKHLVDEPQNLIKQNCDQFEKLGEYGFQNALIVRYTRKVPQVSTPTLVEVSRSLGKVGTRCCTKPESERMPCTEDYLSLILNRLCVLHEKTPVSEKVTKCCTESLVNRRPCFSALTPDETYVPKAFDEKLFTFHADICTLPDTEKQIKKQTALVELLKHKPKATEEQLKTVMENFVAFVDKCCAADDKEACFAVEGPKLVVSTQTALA

**Q.** How did the “UV absorbance of BSA at 278 nm vs. concentration” value turn out when `FC(F)C(F)(F)COCc1ccnc(-c2cc(COCC(F)(F)C(F)F)ccn2)c1.[Cl][Pt][Cl]` [TFBPC] was run?
**A.** Its value is “positively correlated”.
